Results published in ChEMBL document CHEMBL5241119, “Hydroxypyrone derivatives in drug discovery: from chelation therapy to rational design of metalloenzyme inhibitors” (RSC Med Chem, 2022).

Tests used:
Glycine max = assay: Inhibition of soybean 5-LOX relative to control
Mushroom tyrosinase [1] = molecular target: T1, Mushroom tyrosinase (Agaricus bisporus, UniProt O42713+Q00024+C7FF04+C7FF05); assay: Inhibition of mushroom monophenolase
Mushroom tyrosinase [2] = molecular target: T1, Mushroom tyrosinase; assay: Inhibition of mushroom diphenolase
Mushroom tyrosinase [3] = molecular target: T1, Mushroom tyrosinase; assay: Inhibition of mushroom monophenolase activity by Lineweaver-burk reciprocal plot analysis
[4] = molecular target: T2, Mushroom tyrosinase (Agaricus bisporus) (UniProt O42713+Q00024+C7FF04+C7FF05); assay: Inhibition of mushroom monophenolase activity using L-DOPA as substrate preincubated with substrate followed by compound addition by Lineweaver-burk reciprocal plot analysis
Mushroom tyrosinase [5] = molecular target: T1, Mushroom tyrosinase; assay: Inhibition of mushroom Diphenolase activity by Lineweaver-burk reciprocal plot analysis
[6] = molecular target: T2, Mushroom tyrosinase (Agaricus bisporus); assay: Inhibition of mushroom Diphenolase activity using L-DOPA as substrate preincubated with substrate followed by compound addition by Lineweaver-burk reciprocal plot analysis
Interstitial collagenase = molecular target: T3, Interstitial collagenase (Homo sapiens, UniProt P03956); assay: Inhibition of human MMP-1
T3 sequence (P03956 whole entry): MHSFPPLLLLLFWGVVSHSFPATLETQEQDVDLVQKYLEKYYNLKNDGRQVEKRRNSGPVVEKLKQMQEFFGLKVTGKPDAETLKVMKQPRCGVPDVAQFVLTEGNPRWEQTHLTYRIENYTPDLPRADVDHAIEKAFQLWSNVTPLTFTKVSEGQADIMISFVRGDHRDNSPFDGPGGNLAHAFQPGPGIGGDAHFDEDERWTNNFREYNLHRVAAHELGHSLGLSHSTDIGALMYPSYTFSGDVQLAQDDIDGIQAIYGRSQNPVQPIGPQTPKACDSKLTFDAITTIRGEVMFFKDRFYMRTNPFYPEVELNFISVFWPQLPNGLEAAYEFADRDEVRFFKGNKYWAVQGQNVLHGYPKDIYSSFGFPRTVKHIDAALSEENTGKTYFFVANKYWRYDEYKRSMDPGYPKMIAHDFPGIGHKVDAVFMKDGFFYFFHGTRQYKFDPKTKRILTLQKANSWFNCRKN

Matrilysin = molecular target: T4, Matrilysin (Homo sapiens, UniProt P09237); assay: Inhibition of human MMP-7
T4 sequence (P09237 whole entry): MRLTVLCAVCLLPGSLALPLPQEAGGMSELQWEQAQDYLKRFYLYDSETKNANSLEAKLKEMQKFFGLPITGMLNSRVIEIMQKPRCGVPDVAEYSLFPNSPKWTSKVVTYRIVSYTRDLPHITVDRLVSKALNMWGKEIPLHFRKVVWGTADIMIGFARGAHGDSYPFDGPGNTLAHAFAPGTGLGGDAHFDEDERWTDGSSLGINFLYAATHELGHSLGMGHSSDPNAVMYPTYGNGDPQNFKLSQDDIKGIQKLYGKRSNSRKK

[7] = molecular target: T5, Matrix metalloproteinase-9 (Homo sapiens, UniProt P14780); assay: Inhibition of human MMP-9
Collagenase 3 = Collagenase 3 (Homo sapiens, UniProt P45452); assay: Inhibition of human MMP-13
Neutrophil collagenase [8] = molecular target: T6, Neutrophil collagenase (Homo sapiens, UniProt P22894); assay: Inhibition of human MMP-8
Target sequence in this assay (P22894 whole entry): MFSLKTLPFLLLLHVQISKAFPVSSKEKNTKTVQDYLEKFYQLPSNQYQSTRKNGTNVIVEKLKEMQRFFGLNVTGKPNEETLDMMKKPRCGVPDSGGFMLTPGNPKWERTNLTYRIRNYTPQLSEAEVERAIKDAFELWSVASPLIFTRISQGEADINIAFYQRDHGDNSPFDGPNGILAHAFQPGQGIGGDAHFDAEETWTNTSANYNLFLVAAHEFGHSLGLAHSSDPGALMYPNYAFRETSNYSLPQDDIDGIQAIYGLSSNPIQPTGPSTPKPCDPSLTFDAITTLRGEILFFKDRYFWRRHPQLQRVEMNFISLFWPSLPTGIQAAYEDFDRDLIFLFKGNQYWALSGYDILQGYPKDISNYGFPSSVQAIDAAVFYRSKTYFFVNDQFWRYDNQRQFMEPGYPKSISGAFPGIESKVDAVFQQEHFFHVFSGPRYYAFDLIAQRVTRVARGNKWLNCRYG

[9] = Inhibition of Pseudomonas aeruginosa Metallo-beta-lactamase VIM-2
Lethal factor = Lethal factor (Bacillus anthracis, UniProt P15917); assay: Inhibition of anthrax lethal factor
Pseudomonas aeruginosa = assay: Inhibition of Pseudomonas aeruginosa Metallo-beta-lactamase VIM-2 at 50 uM relative to control
[10] = Therapeutic index, ratio of CC50 for HEK293 cells to EC50 for Escherichia coli expressing VIM-2; assay type: toxicity; details: human, read-out: Ratio CC50/EC50
[11] = molecular target: T7, Macrophage metalloelastase (Homo sapiens, UniProt P39900); assay: Inhibition of human MMP-12 relative to control; design: concentration or dose not given beside the values; details: concentration not given here
Target sequence in this assay (P39900 106-470 limits assumed): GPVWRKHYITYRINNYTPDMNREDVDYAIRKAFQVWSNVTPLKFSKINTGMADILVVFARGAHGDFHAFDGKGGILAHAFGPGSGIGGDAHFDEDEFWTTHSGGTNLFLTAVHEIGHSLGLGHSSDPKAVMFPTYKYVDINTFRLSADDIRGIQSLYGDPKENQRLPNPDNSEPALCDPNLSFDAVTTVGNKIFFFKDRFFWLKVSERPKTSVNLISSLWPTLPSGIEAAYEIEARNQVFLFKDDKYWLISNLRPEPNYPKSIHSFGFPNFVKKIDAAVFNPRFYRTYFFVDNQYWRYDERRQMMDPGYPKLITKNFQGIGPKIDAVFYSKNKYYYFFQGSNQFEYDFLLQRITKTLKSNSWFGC

[12] = molecular target: Polymerase acidic protein (Influenza A virus (A/Puerto Rico/8/1934(H1N1))) (UniProt P03433); assay: Inhibition of Influenza A virus N-terminal domain of PA endonuclease relative to control; details: concentration not given here
Acetylcholinesterase = Acetylcholinesterase (Electrophorus electricus, UniProt O42275); assay: Inhibition of Electrophorus electricus AChE
[13] = molecular target: T7, Macrophage metalloelastase; assay: Inhibition of human MMP-12
Target sequence in this assay (P39900 whole entry, the tested form may be a part): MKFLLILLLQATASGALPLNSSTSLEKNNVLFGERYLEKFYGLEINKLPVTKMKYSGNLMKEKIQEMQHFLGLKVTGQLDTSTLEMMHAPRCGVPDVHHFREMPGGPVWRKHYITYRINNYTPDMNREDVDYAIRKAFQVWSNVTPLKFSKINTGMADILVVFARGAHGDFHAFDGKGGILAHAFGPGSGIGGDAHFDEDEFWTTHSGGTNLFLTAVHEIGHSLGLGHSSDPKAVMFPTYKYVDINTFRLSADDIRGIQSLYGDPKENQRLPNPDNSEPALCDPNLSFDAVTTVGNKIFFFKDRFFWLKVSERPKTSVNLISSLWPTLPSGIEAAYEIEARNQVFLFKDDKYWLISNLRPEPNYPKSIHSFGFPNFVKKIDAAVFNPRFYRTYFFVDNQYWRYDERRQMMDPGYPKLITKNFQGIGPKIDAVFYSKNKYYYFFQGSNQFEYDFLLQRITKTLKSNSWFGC

Stromelysin-1 [14] = molecular target: T8, Stromelysin-1 (Homo sapiens, UniProt P08254); assay: Inhibition of human MMP-3
Target sequence in this assay (P08254 whole entry): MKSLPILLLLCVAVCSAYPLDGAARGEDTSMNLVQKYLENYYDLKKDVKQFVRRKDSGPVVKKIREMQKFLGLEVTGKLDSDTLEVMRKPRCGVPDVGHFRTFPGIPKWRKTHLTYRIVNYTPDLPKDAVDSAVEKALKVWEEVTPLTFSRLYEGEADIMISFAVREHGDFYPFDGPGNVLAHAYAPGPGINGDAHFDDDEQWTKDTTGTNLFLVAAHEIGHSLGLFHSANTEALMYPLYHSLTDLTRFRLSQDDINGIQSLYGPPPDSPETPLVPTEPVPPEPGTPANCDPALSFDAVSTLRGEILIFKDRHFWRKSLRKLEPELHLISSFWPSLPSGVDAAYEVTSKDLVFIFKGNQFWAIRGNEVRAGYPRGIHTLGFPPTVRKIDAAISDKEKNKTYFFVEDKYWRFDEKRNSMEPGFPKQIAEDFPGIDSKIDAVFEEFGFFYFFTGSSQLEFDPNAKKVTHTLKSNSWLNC

[15] = Inhibition of NDM-1 (unknown origin) relative to control; design: concentration or dose not given beside the values; details: Bacteria; concentration not given here
Neutrophil collagenase [16] = molecular target: T6, Neutrophil collagenase; assay: Inhibition of beta-glucosidase activated MMP-8 (unknown origin) relative to control; details: concentration not given here
[17] = molecular target: T5, Matrix metalloproteinase-9; assay: Inhibition of beta-glucosidase activated MMP-9 (unknown origin) relative to control; details: concentration not given here
Stromelysin-1 [18] = molecular target: T8, Stromelysin-1; assay: Inhibition of MMP-3 (unknown origin) by fluorescence based assay
Target sequence in this assay (P08254 whole entry): as above

Stromelysin-1 [19] = molecular target: T8, Stromelysin-1; assay: Inhibition of MMP-3 (unknown origin) by Colorimetric assay
Target sequence in this assay (P08254 whole entry): as above

[20] = molecular target: T5, Matrix metalloproteinase-9; assay: Inhibition of human MMP-9 at 100 uM relative to control
[21] = molecular target: Interstitial collagenase (Homo sapiens) (UniProt P03956); assay: Inhibition of human MMP-1 at 100 uM relative to control
Stromelysin-1 [22] = molecular target: T8, Stromelysin-1; assay: Inhibition of human MMP-3 at 100 uM relative to control
Target sequence in this assay (P08254 100-477 limits assumed): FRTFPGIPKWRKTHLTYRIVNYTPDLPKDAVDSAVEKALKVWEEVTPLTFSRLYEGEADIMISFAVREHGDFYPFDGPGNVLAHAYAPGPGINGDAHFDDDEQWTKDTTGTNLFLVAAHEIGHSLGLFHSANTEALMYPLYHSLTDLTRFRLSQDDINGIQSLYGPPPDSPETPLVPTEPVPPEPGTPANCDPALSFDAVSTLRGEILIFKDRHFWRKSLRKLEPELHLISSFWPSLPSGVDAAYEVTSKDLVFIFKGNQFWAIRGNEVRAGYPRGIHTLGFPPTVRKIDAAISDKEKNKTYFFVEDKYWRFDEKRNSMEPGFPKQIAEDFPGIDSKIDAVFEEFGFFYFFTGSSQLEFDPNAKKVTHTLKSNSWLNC

[23] = molecular target: 72 kDa type IV collagenase (Homo sapiens, UniProt P08253); assay: Inhibition of MMP-2 (unknown origin)
Stromelysin-1 [24] = molecular target: T8, Stromelysin-1; assay: Inhibition of MMP-3 (unknown origin)
Target sequence in this assay (P08254 whole entry): as the sequence (P08254 whole entry) above

[25] = molecular target: T5, Matrix metalloproteinase-9; assay: Inhibition of MMP-9 (unknown origin)
[26] = molecular target: Amyloid-beta precursor protein (Homo sapiens) (UniProt P05067); assay: Inhibition of amyloid beta (1 to 42 ) (unknown origin) self aggregation at 100 uM relative to control
SH-SY5Y = assay: Protection against amyloid beta (1 to 42) induced toxicity in human SH-SY5Y cells assessed as increase in cell viability; assay type: functional
[27] = molecular target: Amine oxidase [flavin-containing] B (Homo sapiens, UniProt P27338); assay: Inhibition of human MAO-B
[28] = Antioxidant activity assessed as DPPH radical scavenging activity; assay type: functional
Rattus norvegicus [29] = organism: Rattus norvegicus; assay: Cardioprotective activity in myocardial ischemia/reperfusion induced Sprague-Dawley rat injury model assessed as recovery of contractile function; assay type: functional
Rattus norvegicus [30] = organism: Rattus norvegicus; assay: Cardioprotective activity in myocardial ischemia/reperfusion induced Sprague-Dawley rat injury model assessed as improved RPP; assay type: functional
Rattus norvegicus [31] = organism: Rattus norvegicus; assay: Cardioprotective activity in myocardial ischemia/reperfusion induced Sprague-Dawley rat injury model assessed as improved coronary flow rate; assay type: functional
Rattus norvegicus [32] = organism: Rattus norvegicus; assay: Cardioprotective activity in myocardial ischemia/reperfusion induced Sprague-Dawley rat injury model assessed as reduction in muscle damage; assay type: functional; design: scale not given: the % may be the effect or the level left
Rattus norvegicus [33] = organism: Rattus norvegicus; assay: Cardioprotective activity in myocardial ischemia/reperfusion induced Sprague-Dawley rat injury model assessed as reduction in fibrillar collagen damage; assay type: functional; design: scale not given: the % may be the effect or the level left

Chain of Acetylcholinesterase (O42275 whole entry): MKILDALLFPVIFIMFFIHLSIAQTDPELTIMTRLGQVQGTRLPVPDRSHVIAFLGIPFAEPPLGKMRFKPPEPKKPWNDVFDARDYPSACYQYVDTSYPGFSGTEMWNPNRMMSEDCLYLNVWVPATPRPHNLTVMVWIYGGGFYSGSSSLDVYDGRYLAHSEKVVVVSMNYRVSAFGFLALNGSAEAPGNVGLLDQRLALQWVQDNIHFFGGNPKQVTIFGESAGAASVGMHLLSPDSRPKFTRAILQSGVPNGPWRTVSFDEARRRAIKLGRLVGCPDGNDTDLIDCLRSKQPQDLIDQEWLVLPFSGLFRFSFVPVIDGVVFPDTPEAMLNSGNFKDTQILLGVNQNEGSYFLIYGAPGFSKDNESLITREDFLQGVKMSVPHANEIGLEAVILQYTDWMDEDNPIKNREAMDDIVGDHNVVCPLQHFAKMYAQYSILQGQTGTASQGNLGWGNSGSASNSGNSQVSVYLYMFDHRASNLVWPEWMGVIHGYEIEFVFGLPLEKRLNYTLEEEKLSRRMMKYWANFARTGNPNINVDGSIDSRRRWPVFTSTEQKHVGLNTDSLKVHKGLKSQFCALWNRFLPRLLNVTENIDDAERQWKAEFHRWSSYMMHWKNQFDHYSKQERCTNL
T5 sequence (P14780 whole entry): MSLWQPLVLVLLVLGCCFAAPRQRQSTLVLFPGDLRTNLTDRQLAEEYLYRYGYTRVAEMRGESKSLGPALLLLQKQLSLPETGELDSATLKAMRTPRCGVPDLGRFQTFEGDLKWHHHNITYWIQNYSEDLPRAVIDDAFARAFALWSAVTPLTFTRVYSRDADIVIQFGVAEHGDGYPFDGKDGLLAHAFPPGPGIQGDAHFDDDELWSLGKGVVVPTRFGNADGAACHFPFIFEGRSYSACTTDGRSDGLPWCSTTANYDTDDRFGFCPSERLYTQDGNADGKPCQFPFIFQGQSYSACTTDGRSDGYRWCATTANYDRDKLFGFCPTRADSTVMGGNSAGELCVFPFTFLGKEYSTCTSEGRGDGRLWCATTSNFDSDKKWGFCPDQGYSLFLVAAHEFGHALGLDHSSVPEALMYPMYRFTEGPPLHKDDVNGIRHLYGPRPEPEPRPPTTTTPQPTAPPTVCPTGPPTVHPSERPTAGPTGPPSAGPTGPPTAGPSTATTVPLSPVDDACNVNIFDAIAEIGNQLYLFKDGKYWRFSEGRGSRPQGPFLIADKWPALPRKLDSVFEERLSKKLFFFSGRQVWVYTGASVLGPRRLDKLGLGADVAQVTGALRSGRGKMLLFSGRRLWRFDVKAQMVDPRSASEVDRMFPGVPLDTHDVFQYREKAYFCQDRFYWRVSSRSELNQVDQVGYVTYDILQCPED
Chain of Amine oxidase [flavin-containing] B (P27338 whole entry): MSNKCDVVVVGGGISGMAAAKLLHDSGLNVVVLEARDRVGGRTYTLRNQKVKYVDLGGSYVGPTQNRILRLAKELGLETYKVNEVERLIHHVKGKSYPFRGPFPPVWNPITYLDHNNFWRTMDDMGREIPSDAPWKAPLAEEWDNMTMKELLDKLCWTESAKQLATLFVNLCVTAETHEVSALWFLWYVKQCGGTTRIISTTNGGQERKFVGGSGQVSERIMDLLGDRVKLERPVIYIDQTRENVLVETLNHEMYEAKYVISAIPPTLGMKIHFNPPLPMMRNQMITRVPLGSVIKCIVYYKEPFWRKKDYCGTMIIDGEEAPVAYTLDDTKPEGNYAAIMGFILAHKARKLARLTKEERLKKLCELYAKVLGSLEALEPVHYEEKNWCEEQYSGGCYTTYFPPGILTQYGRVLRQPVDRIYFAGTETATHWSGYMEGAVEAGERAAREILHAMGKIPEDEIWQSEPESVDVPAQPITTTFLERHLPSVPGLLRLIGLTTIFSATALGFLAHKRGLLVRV
Chain of Lethal factor (P15917 whole entry): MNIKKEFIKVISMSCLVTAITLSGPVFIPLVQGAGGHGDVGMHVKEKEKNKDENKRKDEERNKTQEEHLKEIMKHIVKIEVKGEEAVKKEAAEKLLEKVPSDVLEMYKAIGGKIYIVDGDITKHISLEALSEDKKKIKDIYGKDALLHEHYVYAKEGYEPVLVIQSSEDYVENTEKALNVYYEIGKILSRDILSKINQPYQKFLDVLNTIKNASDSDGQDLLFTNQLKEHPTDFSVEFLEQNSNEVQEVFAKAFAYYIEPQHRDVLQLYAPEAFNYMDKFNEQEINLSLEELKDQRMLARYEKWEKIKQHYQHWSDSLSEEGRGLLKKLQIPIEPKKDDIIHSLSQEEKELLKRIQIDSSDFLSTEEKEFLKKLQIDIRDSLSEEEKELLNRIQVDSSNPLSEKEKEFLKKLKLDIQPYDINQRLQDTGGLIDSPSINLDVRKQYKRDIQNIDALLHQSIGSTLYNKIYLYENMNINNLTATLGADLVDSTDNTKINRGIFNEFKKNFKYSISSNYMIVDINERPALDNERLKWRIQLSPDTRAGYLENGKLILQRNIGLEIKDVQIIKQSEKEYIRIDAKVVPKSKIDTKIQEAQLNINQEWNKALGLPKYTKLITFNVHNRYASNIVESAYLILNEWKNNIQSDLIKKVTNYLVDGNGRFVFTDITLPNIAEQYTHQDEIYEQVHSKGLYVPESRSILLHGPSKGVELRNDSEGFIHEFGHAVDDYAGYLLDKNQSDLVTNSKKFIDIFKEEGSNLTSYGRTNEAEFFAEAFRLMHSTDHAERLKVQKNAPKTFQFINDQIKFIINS

CCCNC(=O)CCC(=O)NCc1c(O)c(=O)cc(C)n1C
inhibition (Glycine max): 10%

CCCCCCO/N=C/c1cc(=O)c(O)c[nH]1
IC50 (Mushroom tyrosinase [1]): 2.04 µM | IC50 (Mushroom tyrosinase [2]): 13.89 µM | Ki (Mushroom tyrosinase [3]): 24.84 µM | Kis [4]: 18.1 µM | Ki (Mushroom tyrosinase [5]): 24.84 µM | Kis [6]: 18.1 µM

Cc1cc(=O)c(O)c(C(=O)NCc2ccc(-c3ccccc3)cc2)n1C
IC50 (Interstitial collagenase): 25 µM | IC50 (Matrilysin): 25 µM | IC50 [7]: 25 µM | IC50 (Collagenase 3): 4 µM | IC50 (Neutrophil collagenase [8]): 1.2 µM

Cn1ccc(=O)c(O)c1C(=O)NCc1ccc(-c2ccccc2)cc1
IC50 (Interstitial collagenase): 25 µM | IC50 (Matrilysin): 25 µM | IC50 [7]: 25 µM | IC50 (Collagenase 3): 4 µM | IC50 (Neutrophil collagenase [8]): 1.2 µM

[O-][n+]1ccccc1S
IC50 [9]: 0.908 µM | Ki [9]: 0.217 µM

Cc1cc(=S)c(O)c(C(=O)NCc2ccc(-c3ccccc3)cc2)o1
IC50 (Lethal factor): 13.9 µM

CCCCCCCCO/N=C/c1cc(=O)c(O)c[nH]1
IC50 (Mushroom tyrosinase [1]): 1.6 µM | IC50 (Mushroom tyrosinase [2]): 7.99 µM | Ki (Mushroom tyrosinase [3]): 32.54 µM | Kis [4]: 21.3 µM | Ki (Mushroom tyrosinase [5]): 32.54 µM | Kis [6]: 21.3 µM

O=C(O)c1cccc(=S)n1O
Ki [9]: 0.013 µM | inhibition (Pseudomonas aeruginosa): 98% | selectivity ratio [10]: 8800

O=C(O)c1c[nH]c2ccccc2c1=S
inhibition [11]: 93%

CCCCCCCCn1cc(O)c(=O)cc1COC(=O)[C@H](N)Cc1ccccc1
IC50 (Mushroom tyrosinase [1]): 12.6 µM | IC50 (Mushroom tyrosinase [2]): 4.01 µM

Oc1coc2ccccc2c1=S
inhibition [11]: 93% | inhibition [12]: > 90%

Cc1c(OCc2ccccc2)c(=O)ccn1-c1ccc(CC(=O)Nc2ccc(Cc3nc4ccccc4s3)cc2)cc1
IC50 (Acetylcholinesterase): 14.7 µM

On1cc2ccccc2cc1=S
inhibition [12]: > 90%

Cn1cc(O)c(=O)cc1/C=C/C(=O)c1ccc(F)cc1
IC50 (Mushroom tyrosinase [1]): 3.07 µM | IC50 (Mushroom tyrosinase [2]): 17.05 µM

O=C(NCc1ccc(-c2ccccc2)cc1)c1occc(=O)c1O
IC50 (Interstitial collagenase): 25 µM | IC50 (Matrilysin): 25 µM | IC50 [7]: 25 µM | IC50 (Collagenase 3): 4 µM | IC50 (Neutrophil collagenase [8]): 0.018 µM | IC50 [13]: 0.018 µM | IC50 (Stromelysin-1 [14]): 0.077 µM

S=c1cc[nH]c2[nH]cnc12
inhibition [15]: 90%

Cc1occc(=O)c1O[C@@H]1O[C@H](CO)[C@@H](O)[C@H](O)[C@H]1O
inhibition (Neutrophil collagenase [16]): 33% | inhibition [17]: 73%

[O-][n+]1ccccc1S [PYRITHIONE]
IC50 (Stromelysin-1 [18]): 35 µM | IC50 (Stromelysin-1 [19]): 20 µM

Cc1c(O)c(=S)ccn1C
inhibition [15]: 90%

CS(=O)(=O)Cc1cccc(=S)n1O
inhibition [11]: 93% | inhibition [15]: 90% | inhibition [12]: > 90%

CCCCCCCCn1ccc(=O)c(O)c1C
inhibition (Glycine max): 40%

Cc1occ(O)c(=S)c1C(=O)NCc1ccc(-c2ccccc2)cc1
inhibition [20]: 54%

On1ccc2ccccc2c1=S
inhibition [11]: 93% | inhibition [15]: 90%

Cc1occ(O)c(=O)c1C(=O)NCc1ccc(-c2ccccc2)cc1
inhibition [21]: 21% | inhibition (Stromelysin-1 [22]): 21%

Cc1cc(=O)c(O)c(C(=O)NCc2ccc(-c3ccccc3)cc2)o1
IC50 (Interstitial collagenase): 25 µM | IC50 (Matrilysin): 25 µM | IC50 [7]: 25 µM | IC50 (Collagenase 3): 4 µM | IC50 (Neutrophil collagenase [8]): 0.018 µM | IC50 [13]: 0.018 µM

Cc1c(O)c(=S)ccn1Cc1ccc(-c2ccccc2)cc1
IC50 [23]: 1 µM | IC50 (Stromelysin-1 [24]): 4 µM | IC50 [25]: 2 µM | IC50 (Lethal factor): 3 µM

On1ccc2[nH]cnc2c1=S
inhibition [15]: 90%

Cc1c(OCc2ccccc2)c(=O)ccn1-c1ccc(CC(=O)Nc2ccc(-c3nc4ccccc4s3)cc2)cc1
IC50 (Acetylcholinesterase): 14.7 µM | inhibition [26]: 68% | Activity (SH-SY5Y): 100%

Cc1cc(=O)c(O)c(CO)n1CCCn1cc(COc2cc3ccccc3oc2=O)nn1
IC50 [27]: 0.86 µM

Cc1c(O)c(=O)ccn1C
inhibition ([4]; concentration not given here): 2% | inhibition (Glycine max): 70%

Oc1coccc1=S
inhibition [11]: 93% | inhibition [15]: 90% | inhibition [12]: > 90%

Cc1cc(=O)c(O)c(CO)n1CCn1cc(COc2ccc3ccc(=O)oc3c2)nn1
IC50 [27]: 0.68 µM

Cc1c(O)c(=O)ccn1CCCC(=O)N1CCCC1c1nc2ccccc2s1 (stereo not given)
EC50 [28]: 247 µM

O=C(NCc1ccc(-c2ccccc2)cc1)c1cccc(=O)n1O
IC50 (Interstitial collagenase): 25 µM | IC50 (Matrilysin): 25 µM | IC50 [7]: 25 µM | IC50 (Collagenase 3): 4 µM | IC50 (Neutrophil collagenase [8]): 0.018 µM | Activity (Rattus norvegicus [29]): 80% | Activity (Rattus norvegicus [30]): 23% | Activity (Rattus norvegicus [31]): 22% | Activity (Rattus norvegicus [32]): 25% | Activity (Rattus norvegicus [33]): 60%

Cc1c(OCc2ccccc2)c(=O)ccn1CCCC(=O)Nc1ccc(Cc2nc3ccccc3s2)cc1
IC50 (Acetylcholinesterase): 14.7 µM

COc1ccc(C(=O)/C=C/c2cc(=O)c(O)c[nH]2)cc1OC
IC50 (Mushroom tyrosinase [1]): 2.75 µM | IC50 (Mushroom tyrosinase [2]): 19.3 µM
